Common to all, as to assay: NanoBRET CELLinib128
Holding throughout (format): binding

One experiment has as its target T1, BTK (Homo sapiens, UniProt Q06187).
T1 construct: Full-length kinase ORF (Promega, Madison, WI, USA) cloned in frame with a NanoLuc-vector was transfected into HEK293T cells; host or cells: HEK293T
The conditions noted are these: 1 µM; 100% no effect, 0% complete tracer displacement. The procedure: (§1) To get an impression about the binding strength of the PROTAC MA191 and the reference inhibitor MA68 to other kinases besides FLT3-ITD the binding on a kinase panel of further 128 representative protein kinases at 1 μM concentration was tested using the NanoBRET^TM cellular target engagement assay (CELLinib128 assay, CELLinib GmbH, Frankfurt, Germany). […] In none of the 128 kinases MA191 was able to displace the tracer (inhibitor) used by more than 50%, Table S1, Supplementary Information).
(§2) The CELLinib128 assay was performed by CELLinib GmbH, Frankfurt (Germany) as described previously. In brief: Full-length kinase ORF (Promega, Madison, WI, USA) cloned in frame with a NanoLuc-vector was transfected into HEK293T cells in Opti-MEM without phenol red (Life Technologies, Carlsbad, CA, USA) at a density of 2 × 10^5 cells/mL using FuGENE HD (Promega, E2312) and proteins were allowed to express for 20 h. For CDKs, where indicated below, an excess of an activator without an NLuc-fusion was cotransfected. […] The system was allowed to equilibrate at 37 °C for 2 h and 5% CO2 prior to BRET measurements. For PKCs, a chemical activator PMA was added in a final concentration of 1 µM was added together with test compounds and tracers (Promega, V1171). To measure BRET, NanoBRET^TM NanoGlo substrate + extracellular NanoLuc inhibitor (Promega, N2160) were added as per the manufacturer’s protocol, and filtered luminescence was measured (450 nm BP filter (donor) and 610 nm LP filter (acceptor)). For the 1-shot test compounds, data were normalized to the tracer control and the background control or control compound plateau and an average and SD were calculated. […] For the control compounds competitive displacement data were normalized to the tracer Ctrl and the background Ctrl and then plotted and fitted using GraphPad Prism 10 software using a normalized 3-parameter curve fit with the following equation: Y = 100/(1 + 10^X−LogIC50).

The target in the next experiment is T2, TNK2 (Homo sapiens, UniProt Q07912).
T2 construct: Full-length kinase ORF (Promega, Madison, WI, USA) cloned in frame with a NanoLuc-vector; host or cells: HEK293T
T2 sequence (Q07912 whole entry): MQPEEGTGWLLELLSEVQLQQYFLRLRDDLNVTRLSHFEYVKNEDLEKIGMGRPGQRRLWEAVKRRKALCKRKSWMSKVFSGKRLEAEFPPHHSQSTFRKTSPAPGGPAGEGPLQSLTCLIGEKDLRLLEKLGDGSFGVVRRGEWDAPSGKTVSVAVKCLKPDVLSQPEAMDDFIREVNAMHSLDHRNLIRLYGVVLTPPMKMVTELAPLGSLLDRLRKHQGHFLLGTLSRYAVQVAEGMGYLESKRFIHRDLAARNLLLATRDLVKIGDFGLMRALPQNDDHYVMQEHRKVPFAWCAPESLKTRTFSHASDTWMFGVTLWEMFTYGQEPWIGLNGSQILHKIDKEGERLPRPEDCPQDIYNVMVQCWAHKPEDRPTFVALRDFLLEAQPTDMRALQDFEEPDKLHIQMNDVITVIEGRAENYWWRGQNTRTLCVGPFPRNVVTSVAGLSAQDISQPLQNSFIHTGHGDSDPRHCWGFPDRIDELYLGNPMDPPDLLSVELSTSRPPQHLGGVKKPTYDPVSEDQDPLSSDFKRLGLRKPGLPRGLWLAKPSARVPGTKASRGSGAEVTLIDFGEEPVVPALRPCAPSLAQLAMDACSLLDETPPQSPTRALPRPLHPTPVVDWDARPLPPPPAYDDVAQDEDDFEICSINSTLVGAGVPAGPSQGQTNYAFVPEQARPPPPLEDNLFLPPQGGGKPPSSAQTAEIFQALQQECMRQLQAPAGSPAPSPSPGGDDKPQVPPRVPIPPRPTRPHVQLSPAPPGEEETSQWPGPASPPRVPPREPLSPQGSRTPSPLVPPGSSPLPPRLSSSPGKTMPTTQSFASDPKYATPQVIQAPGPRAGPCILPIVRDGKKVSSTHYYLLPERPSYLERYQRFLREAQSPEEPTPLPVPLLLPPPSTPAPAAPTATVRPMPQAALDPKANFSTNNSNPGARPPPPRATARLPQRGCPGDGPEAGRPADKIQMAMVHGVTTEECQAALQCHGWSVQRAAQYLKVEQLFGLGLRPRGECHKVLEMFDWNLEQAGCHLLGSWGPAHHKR
The note with it: 100% no effect, 0% complete tracer displacement, read-out: Tracer bound. The procedure: as §1, §2

The next experiment concerns the target T3, FGFR4 (Homo sapiens, UniProt P22455).
T3 construct: Full-length kinase ORF (Promega, Madison, WI, USA) cloned in frame with a NanoLuc-vector was transfected into HEK293T cells; host or cells: HEK293T
The conditions noted are these: 100% no effect, 0% complete tracer displacement, read-out: Tracer bound. The procedure: as §1, §2

In a further experiment the target is T4, NEK9 (Homo sapiens, UniProt Q8TD19).
T4 construct: Full-length kinase ORF (Promega, Madison, WI, USA) cloned in frame with a NanoLuc-vector was transfected into HEK293T cells; host or cells: HEK293T
The conditions noted are these: 100% no effect, 0% complete tracer displacement, read-out: Tracer bound. The procedure:
as §1, §2

Another experiment concerns the target T5, WEE2 (Homo sapiens, UniProt P0C1S8).
T5 construct: Full-length kinase ORF (Promega, Madison, WI, USA) cloned in frame with a NanoLuc-vector; host or cells: HEK293T
The conditions noted are these: 100% no effect, 0% complete tracer displacement, read-out: Tracer bound. As to the method:
as §1, §2

A further experiment addresses T6, STK3 (Homo sapiens, UniProt Q13188).
T6 construct: Full-length kinase ORF (Promega, Madison, WI, USA) cloned in frame with a NanoLuc-vector was transfected into HEK293T cells; host or cells: HEK293T
The note with it: 100% no effect, 0% complete tracer displacement, read-out: Tracer bound. The procedure: as §1, §2

Another experiment deals with T7, CSNK1G2 (Homo sapiens, UniProt P78368).
T7 construct: Full-length kinase ORF (Promega, Madison, WI, USA) cloned in frame with a NanoLuc-vector was transfected into HEK293T cells; host or cells: HEK293T
The conditions noted are these: 1 µM; 100% no effect, 0% complete tracer displacement. The procedure:
as §1, §2

In the next experiment the target is T8, MAP4K2 (Homo sapiens, UniProt Q12851).
T8 construct: Full-length kinase ORF (Promega, Madison, WI, USA) cloned in frame with a NanoLuc-vector was transfected into HEK293T cells; host or cells: HEK293T
T8 sequence (Q12851 whole entry): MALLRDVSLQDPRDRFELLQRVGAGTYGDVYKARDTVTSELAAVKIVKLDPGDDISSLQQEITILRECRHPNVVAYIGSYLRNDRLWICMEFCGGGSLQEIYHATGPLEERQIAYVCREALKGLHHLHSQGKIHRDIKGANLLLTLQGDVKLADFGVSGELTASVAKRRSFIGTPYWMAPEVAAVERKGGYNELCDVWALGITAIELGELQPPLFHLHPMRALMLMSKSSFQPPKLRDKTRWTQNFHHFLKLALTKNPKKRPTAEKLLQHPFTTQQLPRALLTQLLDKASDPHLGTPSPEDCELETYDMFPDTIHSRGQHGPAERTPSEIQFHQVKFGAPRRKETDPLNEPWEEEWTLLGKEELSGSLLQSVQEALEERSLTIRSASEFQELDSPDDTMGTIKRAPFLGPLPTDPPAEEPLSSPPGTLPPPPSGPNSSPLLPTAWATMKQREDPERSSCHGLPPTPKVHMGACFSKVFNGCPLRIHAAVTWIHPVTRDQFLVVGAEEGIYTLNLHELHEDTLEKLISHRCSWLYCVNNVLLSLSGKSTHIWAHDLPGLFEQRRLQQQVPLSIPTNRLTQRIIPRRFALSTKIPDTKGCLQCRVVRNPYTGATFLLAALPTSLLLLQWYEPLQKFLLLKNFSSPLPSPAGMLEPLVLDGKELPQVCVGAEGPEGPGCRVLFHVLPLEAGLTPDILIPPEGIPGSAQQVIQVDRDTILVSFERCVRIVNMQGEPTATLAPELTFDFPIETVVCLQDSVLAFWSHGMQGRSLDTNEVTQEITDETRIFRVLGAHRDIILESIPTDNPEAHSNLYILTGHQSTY
The note with it: 100% no effect, 0% complete tracer displacement, read-out: Tracer bound. The procedure:
as §1, §2

In a further experiment the target is T9, TYK2 (Homo sapiens, UniProt P29597).
T9 construct: Full-length kinase ORF (Promega, Madison, WI, USA) cloned in frame with a NanoLuc-vector; host or cells: HEK293T
T9 sequence (P29597 whole entry): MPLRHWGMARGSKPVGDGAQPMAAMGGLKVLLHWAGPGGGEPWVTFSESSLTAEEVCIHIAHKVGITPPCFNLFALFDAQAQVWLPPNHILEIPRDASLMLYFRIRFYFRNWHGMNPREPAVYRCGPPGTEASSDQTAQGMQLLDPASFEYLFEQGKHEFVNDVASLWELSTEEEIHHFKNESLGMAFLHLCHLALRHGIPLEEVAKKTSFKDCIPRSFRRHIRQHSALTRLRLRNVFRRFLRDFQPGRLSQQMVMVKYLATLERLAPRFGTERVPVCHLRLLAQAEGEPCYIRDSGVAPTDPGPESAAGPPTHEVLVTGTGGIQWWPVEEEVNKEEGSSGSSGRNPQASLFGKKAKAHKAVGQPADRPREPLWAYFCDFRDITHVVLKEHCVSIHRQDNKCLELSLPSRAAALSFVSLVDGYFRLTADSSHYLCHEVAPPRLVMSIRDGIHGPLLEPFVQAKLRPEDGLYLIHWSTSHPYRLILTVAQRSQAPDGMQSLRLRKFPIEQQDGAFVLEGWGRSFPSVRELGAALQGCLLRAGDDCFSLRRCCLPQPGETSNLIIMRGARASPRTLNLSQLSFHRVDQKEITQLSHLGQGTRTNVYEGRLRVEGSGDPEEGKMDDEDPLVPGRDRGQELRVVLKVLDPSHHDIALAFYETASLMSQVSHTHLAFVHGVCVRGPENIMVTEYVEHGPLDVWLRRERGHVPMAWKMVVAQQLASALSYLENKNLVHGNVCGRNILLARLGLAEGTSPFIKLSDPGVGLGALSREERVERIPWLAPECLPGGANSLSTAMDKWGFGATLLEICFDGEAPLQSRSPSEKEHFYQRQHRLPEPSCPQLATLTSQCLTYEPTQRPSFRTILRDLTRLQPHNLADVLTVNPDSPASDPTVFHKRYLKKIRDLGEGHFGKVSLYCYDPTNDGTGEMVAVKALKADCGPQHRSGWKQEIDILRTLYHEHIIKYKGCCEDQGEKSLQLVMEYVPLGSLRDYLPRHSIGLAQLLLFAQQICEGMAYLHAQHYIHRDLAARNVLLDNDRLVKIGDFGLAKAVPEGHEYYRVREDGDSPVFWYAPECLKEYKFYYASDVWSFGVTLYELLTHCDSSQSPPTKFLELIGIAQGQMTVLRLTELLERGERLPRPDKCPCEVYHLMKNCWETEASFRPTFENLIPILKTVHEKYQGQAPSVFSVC
The note with it: 1 µM; 100% no effect, 0% complete tracer displacement. As to the method: as §1, §2

Another experiment deals with T10, CDK5-CDK5R2 (Homo sapiens, UniProt Q00535).
T10 construct: Full-length kinase ORF (Promega, Madison, WI, USA) cloned in frame with a NanoLuc-vector was transfected into HEK293T cells; host or cells: HEK293T
The conditions noted are these: 100% no effect, 0% complete tracer displacement, read-out: Tracer bound. The procedure:
as §1, §2

The target in a further experiment is T11, RPS6KA3 (Homo sapiens, UniProt P51812).
T11 construct: Full-length kinase ORF (Promega, Madison, WI, USA) cloned in frame with a NanoLuc-vector was transfected into HEK293T cells; host or cells: HEK293T
The note with it: 100% no effect, 0% complete tracer displacement, read-out: Tracer bound. The procedure:
as §1, §2

The target of the next experiment is T12, IRAK4 (Homo sapiens, UniProt Q9NWZ3).
T12 construct: Full-length kinase ORF (Promega, Madison, WI, USA) cloned in frame with a NanoLuc-vector was transfected into HEK293T cells; host or cells: HEK293T
The conditions noted are these: 1 µM; 100% no effect, 0% complete tracer displacement. The procedure: as §1, §2

The next experiment addresses T13, LIMK2 (Homo sapiens, UniProt P53671).
T13 construct: Full-length kinase ORF (Promega, Madison, WI, USA) cloned in frame with a NanoLuc-vector was transfected into HEK293T cells; host or cells: HEK293T
The note with it: 100% no effect, 0% complete tracer displacement, read-out: Tracer bound. As to the method: as §1, §2

A further experiment has as its target T14, STK36 (Homo sapiens, UniProt Q9NRP7).
T14 construct: Full-length kinase ORF (Promega, Madison, WI, USA) cloned in frame with a NanoLuc-vector was transfected into HEK293T cells; host or cells: HEK293T
The note with it: 100% no effect, 0% complete tracer displacement, read-out: Tracer bound. As to the method: as §1, §2

A further experiment deals with T15, PRKCD-PMA (Homo sapiens, UniProt Q05655).
T15 construct: Full-length kinase ORF (Promega, Madison, WI, USA) cloned in frame with a NanoLuc-vector was transfected into HEK293T cells; host or cells: HEK293T
T15 sequence (Q05655 whole entry): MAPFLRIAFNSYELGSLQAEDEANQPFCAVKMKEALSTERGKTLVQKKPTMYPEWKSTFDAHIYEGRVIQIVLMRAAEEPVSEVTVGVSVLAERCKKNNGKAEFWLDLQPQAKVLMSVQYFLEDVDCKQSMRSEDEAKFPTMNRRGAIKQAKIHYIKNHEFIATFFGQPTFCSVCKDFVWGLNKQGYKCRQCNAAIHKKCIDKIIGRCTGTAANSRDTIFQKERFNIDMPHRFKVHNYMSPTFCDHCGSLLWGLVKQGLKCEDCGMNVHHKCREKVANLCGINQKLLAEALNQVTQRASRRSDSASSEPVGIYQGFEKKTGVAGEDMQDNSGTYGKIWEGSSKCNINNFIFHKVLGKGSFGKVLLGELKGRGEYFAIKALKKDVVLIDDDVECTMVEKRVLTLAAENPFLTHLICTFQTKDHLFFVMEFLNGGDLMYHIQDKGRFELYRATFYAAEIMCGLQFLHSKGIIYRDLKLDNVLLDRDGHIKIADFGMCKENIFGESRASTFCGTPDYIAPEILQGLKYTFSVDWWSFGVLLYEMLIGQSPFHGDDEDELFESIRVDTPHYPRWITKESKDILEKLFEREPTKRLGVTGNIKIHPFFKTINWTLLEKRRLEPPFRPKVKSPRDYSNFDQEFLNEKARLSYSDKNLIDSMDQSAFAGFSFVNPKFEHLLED
The conditions noted are these: 100% no effect, 0% complete tracer displacement, read-out: Tracer bound. The procedure: as §1, §2

Molecules are shown by their SMILES.

T3 sequence (P22455 22-802): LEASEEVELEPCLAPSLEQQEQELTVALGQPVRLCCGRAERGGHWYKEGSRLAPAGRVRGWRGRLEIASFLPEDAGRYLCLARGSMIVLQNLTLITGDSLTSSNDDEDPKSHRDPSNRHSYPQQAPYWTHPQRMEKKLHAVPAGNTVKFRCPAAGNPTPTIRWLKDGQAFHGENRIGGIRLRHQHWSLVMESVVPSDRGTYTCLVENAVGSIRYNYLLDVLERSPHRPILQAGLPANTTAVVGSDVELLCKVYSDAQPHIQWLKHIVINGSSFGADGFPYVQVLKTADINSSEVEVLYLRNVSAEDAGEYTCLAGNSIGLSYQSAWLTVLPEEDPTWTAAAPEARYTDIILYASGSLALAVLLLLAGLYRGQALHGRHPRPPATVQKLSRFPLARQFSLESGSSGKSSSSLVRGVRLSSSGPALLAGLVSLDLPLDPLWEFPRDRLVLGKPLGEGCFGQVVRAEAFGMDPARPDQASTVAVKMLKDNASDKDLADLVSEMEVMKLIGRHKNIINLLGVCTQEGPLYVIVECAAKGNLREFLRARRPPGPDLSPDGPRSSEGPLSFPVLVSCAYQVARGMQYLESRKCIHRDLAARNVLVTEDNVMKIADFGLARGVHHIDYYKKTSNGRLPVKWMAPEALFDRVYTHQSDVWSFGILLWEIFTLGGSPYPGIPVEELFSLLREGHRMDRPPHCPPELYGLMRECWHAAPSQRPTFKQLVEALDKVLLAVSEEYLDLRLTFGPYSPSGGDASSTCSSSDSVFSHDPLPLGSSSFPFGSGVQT
T6 sequence (Q13188 whole entry): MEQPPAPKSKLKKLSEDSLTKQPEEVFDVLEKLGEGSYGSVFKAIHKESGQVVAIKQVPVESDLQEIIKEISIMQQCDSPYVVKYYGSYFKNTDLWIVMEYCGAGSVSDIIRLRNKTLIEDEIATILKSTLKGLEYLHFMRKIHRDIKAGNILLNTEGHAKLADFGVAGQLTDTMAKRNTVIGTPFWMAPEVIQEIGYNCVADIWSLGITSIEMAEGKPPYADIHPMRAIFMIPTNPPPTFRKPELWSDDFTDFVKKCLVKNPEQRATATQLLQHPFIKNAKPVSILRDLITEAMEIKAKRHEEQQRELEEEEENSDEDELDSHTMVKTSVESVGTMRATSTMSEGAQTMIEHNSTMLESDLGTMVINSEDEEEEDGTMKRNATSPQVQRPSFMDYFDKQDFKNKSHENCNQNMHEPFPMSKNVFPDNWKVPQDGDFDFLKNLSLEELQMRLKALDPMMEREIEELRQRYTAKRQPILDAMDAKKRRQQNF

Turning to `Cc1ncsc1-c1ccc([C@H](C)NC(=O)[C@@H]2C[C@@H](O)CN2C(=O)[C@@H](NC(=O)[C@H]2CC[C@H](C(=O)N3CCN(CCNC(=O)c4cc(Oc5ccc(NC(=O)Nc6cc(C(C)(C)C)on6)cc5)ccn4)CC3)CC2)C(C)(C)C)cc1` [MA191, 4-(4-(3-(5-(tert-Butyl)isoxazol-3-yl)ureido)phenoxy)-N-(2-(4-(trans-4-(((S)-1-((2S,4R)-4-hydroxy-2-(((S)-1-(4-(4-methylthiazol-5-yl)phenyl)ethyl)carbamoyl)pyrrolidin-1-yl)-3,3-dimethyl-1-oxobutan-2-yl)carbamoyl)cyclohexanecarbonyl)piperazin-1-yl)ethyl)picolinamide], the Tracer bound worked out at 120.0% on BTK, 92.4% on CSNK1G2, 105.6% at TYK2 and 114.7% at IRAK4. In addition, the remaining activity at 1 µM on TNK2 was determined as 118%; on FGFR4 it was 92.7%; at NEK9, 109%; on WEE2, 99.3%; at STK3 it was 105%; at MAP4K2, 107%. Moreover, the remaining activity at 1 µM at CDK5-CDK5R2 came out at 104%; on RPS6KA3, 120%; on LIMK2, 105%; on STK36 it was 119%; on PRKCD-PMA, 115%.

The values are drawn from PMC13210772, “Dual FLT3/MAPK14 Proteolysis-Targeting Chimera (PROTAC) Induces Potent Acute Myeloid Leukemia Cell Death” (Pharmaceuticals, 2026).
